Measurements taken from paper PMC6724193 (ACS infectious diseases, 2019).
Converted amounts (≈) assume the structure as drawn. “And” between values parts separate entries of the source, which are not always exact repeats. Equal entries are not always repeated. “Also recorded” adds a separate entry of the source. Where two headings read alike, the source gives them in different places. Marks after values point to notes of the source that are not given here.

Legend:
[1] = test system: E. coli K-12; assay: Intracellular accumulation of antibiotics; format: cell-based
[2] = test system: Vero; conditions: African green monkey, 72 h
[3] = test system: M. tuberculosis H37Ra
[4] = test system: M. avium complex (3); assay: MIC against M. avium complex; format: cell-based; conditions: Mycobacterium avium
[5] = test system: S. aureus (USA300); assay: MIC, broth microdilution, S. aureus; conditions: Staphylococcus aureus
[6] = molecular target: E. coli biotin synthase (EcBioB) (Escherichia coli, UniProt P12996); assay: biochemical; format: biochemical; conditions: for IC50: 5 μM EcBioB dimer, 10 μM DTB, 100 μM SAM, single-turnover
[7] = test system: M. tuberculosis strain carrying two copies of the bioB gene; assay: MIC against BioB merodiploid strain; format: cell-based
[8] = test system: E. faecalis (V583); assay: MIC, broth microdilution, E. faecalis; conditions: Enterococcus faecalis
[9] = test system: M. tuberculosis H37Rv; format: cell-based
[10] = test system: P. aeruginosa (PA14); assay: MIC, broth microdilution, P. aeruginosa; conditions: Pseudomonas aeruginosa
[11] = test system: M. tuberculosis (6) MDR+; assay: microbe, parasite or virus in culture; format: cell-based; conditions: Mycobacterium tuberculosis
[12] = test system: HepG2; conditions: human, 72 h
[13] = test system: M. tuberculosis Erdman; assay: microbe, parasite or virus in culture; format: cell-based; conditions: Mycobacterium tuberculosis
[14] = test system: M. abscessus (4); assay: MIC against M. abscessus; format: cell-based; conditions: Mycobacteroides abscessus
[15] = test system: M. tuberculosis HN878; assay: microbe, parasite or virus in culture; format: cell-based; conditions: Mycobacterium tuberculosis
[16] = test system: M. bovis BCG; assay: microbe, parasite or virus in culture; format: cell-based
[17] = test system: M. tuberculosis (7) MDR; assay: microbe, parasite or virus in culture; format: cell-based; conditions: Mycobacterium tuberculosis
[18] = test system: M. tuberculosis H37Rv; assay: MIC against M. tuberculosis H37Rv; format: cell-based, Mycobacterium tuberculosis
[19] = test system: M. africanum; assay: microbe, parasite or virus in culture; format: cell-based
[20] = test system: A. baumannii (AB5075); assay: MIC, broth microdilution, A. baumannii; conditions: Acinetobacter baumannii
[21] = test system: M. tuberculosis (2) XDR; assay: microbe, parasite or virus in culture; format: cell-based; conditions: Mycobacterium tuberculosis
[22] = test system: E. coli ATCC 25922; assay: MIC, broth microdilution, E. coli; conditions: Escherichia coli, ATCC25922
[23] = test system: M. smegmatis mc^2155; assay: MIC90 against M. smegmatis; format: cell-based; conditions: ≥90% growth inhibition
[24] = test system: M. tuberculosis (8) drug-sensitive clinical isolates; assay: microbe, parasite or virus in culture; format: cell-based; conditions: Mycobacterium tuberculosis
[25] = test system: non-tuberculosis mycobacteria, gram-positive and gram-negative pathogens; assay: organism not typed; format: cell-based
[26] = for t1/2 (i.v.): 5 mg/kg i.v., terminal elimination half-life; for F (oral bioavailability) / AUC0–∞ (i.v.) / CL (i.v.) / Vd (i.v.) / AUC0–∞ (p.o.): mouse, in vivo; for AUC0–∞ (i.v.) / CL (i.v.) / Vd (i.v.): iv, 5 mg/kg; for AUC0–∞ (p.o.): po, 25 mg/kg
[27] = test system: biotinylated proteome of M. tuberculosis; format: cell-based, M. tuberculosis H37Ra
[28] = test system: M. tuberculosis infection; conditions: cited from earlier work
[29] = test system: mycobacteria; conditions: cited from earlier work
[30] = test system: biotin pathway intermediates (vitamers); conditions: acidomycin added to culture media; cited from earlier work
[31] = test system: gram-positive and gram-negative bacteria or fungi; conditions: cited from earlier work
[32] = molecular target: MtBPL (M. tuberculosis biotin protein ligase) (Mycobacterium tuberculosis, UniProt I6YFP0); format: binding
[33] = physchem

Sequence of E. coli biotin synthase (EcBioB) (P12996 whole entry): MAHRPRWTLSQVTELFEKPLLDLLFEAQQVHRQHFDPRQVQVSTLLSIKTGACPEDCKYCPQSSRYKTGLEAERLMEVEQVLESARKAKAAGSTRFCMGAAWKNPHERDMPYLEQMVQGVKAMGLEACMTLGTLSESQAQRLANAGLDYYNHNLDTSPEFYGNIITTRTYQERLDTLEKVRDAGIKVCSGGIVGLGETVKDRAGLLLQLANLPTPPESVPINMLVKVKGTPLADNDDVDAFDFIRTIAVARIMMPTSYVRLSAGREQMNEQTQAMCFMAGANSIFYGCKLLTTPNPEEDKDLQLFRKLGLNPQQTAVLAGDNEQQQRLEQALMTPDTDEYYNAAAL
Sequence of MtBPL (M. tuberculosis biotin protein ligase) (I6YFP0 whole entry, looked up): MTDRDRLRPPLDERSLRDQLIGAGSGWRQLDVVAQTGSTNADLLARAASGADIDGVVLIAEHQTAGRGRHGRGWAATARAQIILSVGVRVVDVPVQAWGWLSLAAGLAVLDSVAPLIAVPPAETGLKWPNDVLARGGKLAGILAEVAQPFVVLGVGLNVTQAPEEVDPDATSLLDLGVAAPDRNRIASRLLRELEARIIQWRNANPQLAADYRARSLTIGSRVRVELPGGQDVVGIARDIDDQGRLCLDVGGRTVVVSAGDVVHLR

## O=C(O)CCCCCC1NC(=O)CS1 (racemic) [(±)-acidomycin, 6-(4-Oxothiazolidin-2-yl)hexanoic acid]
[1]
  IC/EC Ratio: 1.6 and 1.6 ± 0.4
  Intracellular Concentration, −biotin: 80 µM
[1]; E. coli, 50 μM extracellular
  Accumulation, −biotin: 80 ± 20 nmol/10^12 CFUs
[1]; E. coli, 50 μM extracellular, 1 μM biotin
  Accumulation, +biotin: 61 ± 2 nmol/10^12 CFUs
[1]; E. coli, cell volume 1.0 μm^3
  Intracellular Concentration, −biotin: 80 ± 20 µM
[2]
  EC (greater than 50% inhibition of cell viability): >1000^e μM
[3]
  Accumulation, +biotin: 1150 ± 40 nmol/10^12 CFUs
  Accumulation, −biotin: 1300 ± 400 nmol/10^12 CFUs
  Intracellular Concentration, −biotin: 2600 ± 800 µM
  fold higher accumulation in M. tuberculosis than in E. coli: approximately 30 fold
  impact of exogenous biotin on cellular accumulation in M. tuberculosis: little impact
[4]
  MIC: > 100 µM
[5]
  MIC90: > 1000 µM
[6]
  Ki: 2000 ± 1300 nM
  modality of inhibition: competitive inhibitor; also recorded: competitive inhibition
[7]
  change of MIC in BioB merodiploid versus H37Rv: increase in the MIC
[8]
  MIC90: > 1000 µM
[9]
  effect of KAPA supplementation on growth inhibition: no effect
  effect of biotin supplementation on growth inhibition: completely rescued
  shift of MIC by DTB supplementation: approximately two-fold
[10]
  MIC90: > 1000 µM
[11]
  MIC: 0.2 to 4.8 µM (≈ 0.0435 to 1.04 µg/mL)
[12]
  EC (greater than 50% inhibition of cell viability): >1000^e μM
[13]
  MIC: 1.56 µM (≈ 0.339 µg/mL)
[14]
  MIC: > 100 µM
[15]
  MIC: 0.6 µM (≈ 0.13 µg/mL)
[16]
  MIC: 1.30 µM (≈ 0.282 µg/mL)
[16]; Mycobacterium tuberculosis variant bovis BCG, BCG
  MIC: 1.3 µM (≈ 0.282 µg/mL)
[17]
  MIC: 0.6 to 6.2 µM (≈ 0.13 to 1.35 µg/mL)
[18]
  MIC: 1.56 µM (≈ 0.339 µg/mL)
  effect on M. tuberculosis viability: bacteriostatic
  fold difference in MIC relative to (S)-(−)-acidomycin: about 2.5 fold
[18]; Mycobacterium tuberculosis, H37RV
  MIC: 1.6 µM (≈ 0.348 µg/mL)
[19]
  MIC: 0.20 µM (≈ 0.0435 µg/mL)
[19]; Mycobacterium tuberculosis
  MIC: 0.2 µM (≈ 0.0435 µg/mL)
[20]
  MIC90: > 1000 µM
[21]
  MIC: 0.096 to 1.2 µM (≈ 0.0209 to 0.261 µg/mL)
[22]
  MIC90: > 1000 µM
[23]
  MIC90: 10^d μM
[24]
  MIC: 0.096 to 6.2 µM (≈ 0.0209 to 1.35 µg/mL)
[25]
  activity toward representative gram-negative and gram-positive pathogens: inactive

## O=C(O)CCCCC[C@@H]1NC(=O)CS1 [(R)-(+)-acidomycin]
[6]
  IC50: > 100000 nM
[6]; at 100 μM
  inhibition of EcBioB: less than 30%
[18]
  MIC: 7.7 µM (≈ 1.67 µg/mL)
  fold difference in MIC relative to (S)-(−)-acidomycin: thirteen-fold less active
[26]
  t1/2 (i.v.): 19.2 ± 2.4 min
  F (oral bioavailability): 16 ± 7%
  AUC0–∞ (i.v.): 2055 ± 564 ng·h/mL
  CL (i.v.): 40.55 ± 8.03 mL/min/kg
  Vd (i.v.): 1.12 ± 0.37 L/kg
  AUC0–∞ (p.o.): 1591 ± 718 ng·h/mL

## O=C(O)CCCCC[C@H]1NC(=O)CS1 [(S)-(−)-acidomycin]
[6]
  IC50: 13300 ± 1800 nM
[26]
  t1/2 (i.v.): 14.4 ± 0.1 min
  F (oral bioavailability): 8 ± 1%
  AUC0–∞ (i.v.): 2116 ± 115 ng·h/mL
  CL (i.v.): 39.38 ± 2.1 mL/min/kg
  Vd (i.v.): 0.82 ± 0.05 L/kg
  AUC0–∞ (p.o.): 890 ± 106 ng·h/mL

## Nc1ncnc2c1ncn2[C@@H]1O[C@H](CNS(=O)(=O)NC(=O)CCCC[C@@H]2SC[C@@H]3NC(=O)N[C@@H]32)[C@@H](O)[C@H]1O [Bio-AMS, 5ʹ-[N-(D-biotinoyl)sulfamoyl]amino-5ʹ-deoxyadenosine]
[27]
  impact on global protein biotinylation: noticeable decrease in protein band intensity

## CO[C@H]1/C=C/O[C@@]2(C)Oc3c(C)c(O)c4c(O)c(c(/C=N/N5CCN(C)CC5)c(O)c4c3C2=O)NC(=O)/C(C)=C\C=C\[C@H](C)[C@H](O)[C@@H](C)[C@@H](O)[C@@H](C)[C@H](OC(C)=O)[C@@H]1C [Rifampicin, reference compound]
[1]
  IC/EC Ratio: 2.1

## CN(C)[C@@H]1C(O)=C(C(N)=O)C(=O)[C@@]2(O)C(O)=C3C(=O)c4c(O)cccc4[C@@](C)(O)[C@H]3C[C@@H]12 [Tetracycline, reference compound]
[1]
  Accumulation, +biotin: 1600 ± 100 nmol/10^12 CFUs
  Accumulation, −biotin: 3100 ± 120 nmol/10^12 CFUs
[3]
  Accumulation, +biotin: 2220 ± 50 nmol/10^12 CFUs
  Accumulation, −biotin: 2200 ± 200 nmol/10^12 CFUs

## CSc1ccc2c(c1)N(CCC1CCCCN1C)c1ccccc1S2 (stereo not shown) [Thioridazine]
[3]
  Accumulation, +biotin: 5.2 ± 0.4 nmol/10^12 CFUs
  Accumulation, −biotin: 18 ± 1 nmol/10^12 CFUs
  IC/EC Ratio: 0.7 and 0.72 ± 0.04
  Intracellular Concentration, −biotin: 36 ± 2 µM

## O=C(O)CCCCCC1NC(=O)CS1 (stereo not shown) [acidomycin]
[28]
  activity against an M. tuberculosis infection in vivo: inactive
[29]
  increase in inhibitory concentrations after growth in the presence of acidomycin: two-fold
[29]; converted value
  concentrations required to inhibit the growth of mycobacteria in vitro: 1.2 to 46.0 µM
[6]
  Ki: ~1000 nM
  production of 5′-deoxyadenosine by BioB: significantly enhanced
  time-dependent inhibition: did not exhibit time-dependent inhibition
[30]
  increase of accumulation of biotin pathway intermediates (vitamers): two- to seventy-fold
[31]
  concentration without growth inhibition: > 1 mg/mL
[31]; converted value
  concentration without growth inhibition: > 4.6 mM
[18]
  difference in whole cell activity, E. coli versus M. tuberculosis: > 100 fold
[32]
  binding to MtBPL: does not bind to MtBPL
[33]
  solubility: < 4000 µM
[25]
  susceptibility of NTM strains: intrinsically resistant
[25]; read-out: MICs
  MIC: > 1000 µM
